Test results: patent publication US10093629B2, “Heterocyclic compounds and their use as retinoid-related orphan receptor (ROR) gamma-T inhibitors” (Takeda Pharmaceutical Company Limited, priority 2014, dated 2018)
Read-outs that look alike come from different tables or passages of the source.

Experiments:
RORγt [1] = biological target: T1, RORγt (Homo sapiens, UniProt P51449); assay: Cofactor recruitment test (Alpha Screen, biotinylated SRC-1 peptide); format: biochemical; conditions: read-out: signal value inhibitory rate at test compound 1 μM
T1 sequence (P51449 1-497 isoform P51449-2): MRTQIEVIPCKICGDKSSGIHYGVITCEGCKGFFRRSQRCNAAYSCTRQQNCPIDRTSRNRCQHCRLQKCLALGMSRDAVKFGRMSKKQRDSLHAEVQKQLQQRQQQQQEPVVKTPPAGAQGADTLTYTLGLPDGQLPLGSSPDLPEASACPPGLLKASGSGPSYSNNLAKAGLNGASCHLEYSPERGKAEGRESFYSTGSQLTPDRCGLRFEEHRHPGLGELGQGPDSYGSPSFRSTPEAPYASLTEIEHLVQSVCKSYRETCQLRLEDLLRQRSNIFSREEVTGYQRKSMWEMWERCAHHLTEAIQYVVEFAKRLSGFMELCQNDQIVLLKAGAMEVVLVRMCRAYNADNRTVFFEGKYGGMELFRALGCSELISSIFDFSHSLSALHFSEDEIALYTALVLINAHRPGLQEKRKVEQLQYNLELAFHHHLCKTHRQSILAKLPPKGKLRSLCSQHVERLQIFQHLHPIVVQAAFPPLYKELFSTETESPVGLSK
Method: Cofactor Recruitment Test
Cofactor recruitment test was performed by Alpha Screen (Histidine Detection Kit, PerkinElmer) method. First, a test compound was diluted with an assay buffer (50 mM Tris-HCl (pH 7.5), 50 mM KCl, 1 mM DTT, 0.1% BSA) and added to a 384 well plate by 5 μL. […] The mixture was stood in a dark place for 1 hr, and the signal value was measured by Envision (PerkinElmer).

[2] = tested on: IL-23-induced mouse psoriasis model; assay: IL-23-induced mouse psoriasis model; format: in vivo; conditions: 10 mg/kg oral twice daily, Balb/c mice, versus the negative control group; for percent inhibition of IL-17A expression: ear tissue
Method: Effect in an IL-23-Induced Mouse Psoriasis Model
Mouse IL-23 (500 ng/15 μL, R&D) or PBS (15 μL, negative control group) was administered intradermally in the ear of Balb/c mice (Charles River Japan, male, 7 weeks old) 5 times every other days. Seven hr after IL-23 administration at 8 days after the initial administration (final administration), the mice were anesthetized with isoflurane, and ear thickness was measured with calipers. After the ear thickness was measured, the ear was resected, tissue 8 mm in diameter was punched from an area centering on the IL-23 injection site, and the tissue was weighed. The punched ear tissue was cut in half, and one half was immersion-fixed in 10% neutral buffer formalin solution for use in histopathological evaluation. The other half was immersed in RNAlater (QIAGEN) for at least 18 hr for use in an evaluation of the IL-17A mRNA expression level. The test compound was suspended in 0.5% methylcellulose and administered orally twice daily on consecutive days from 30 min before the initial IL-23 administration to 30 min before the final IL-23 administration.
The change in ear thickness in this model was evaluated by calculating the difference in measured thickness between before IL-23 administration and 7 hr after the final IL-23 administration. In addition, the formalin-fixed tissue was embedded and sectioned, then stained with hematoxylin-eosin. The degree of acanthosis was then evaluated qualitatively by microscopy (classified with a score of 0 to 4). RNA extraction from the ear tissue and quantitative PCR were performed as follows. As described above, ear tissue treated with RNAlater (QIAGEN) was homogenized in 350 μL of RLT buffer (RNeasy mini kit, QIAGEN) and treated (55° C., 10 min) with Proteinase K (QIAGEN). Total RNA was then extracted according to the RNeasy mini kit protocol. The RNA thus obtained was reverse transcribed into cDNA using the High-Capacity RNA-to-cDNA kit (Applied Biosystems), and the expression of each gene was measured by real-time PCR (Viia7™, Applied Biosystems). The PCR buffer used was TaqMan Fast Advanced Master Mix (Applied Biosystems), and TaqMan Gene Expression Assays (Applied Biosystems) Mm00439618_m1 (IL-17A) and 4352341E (β-actin) were used to detect the genes. The IL-17A gene expression level was normalized to the β-actin gene expression level, and the percent inhibition of IL-17A gene expression with the test compound was then calculated.
The results (percent inhibition of ear thickness, acanthosis score and IL-17A gene expression with oral administration of the test compound) measured by the above-mentioned method are shown in Table 10.

RORγt [3] = biological target: T1, RORγt; assay: Jurkat reporter test (human IL-17 ROR response element luciferase, RORγt vector); format: cell-based; conditions: test compound 3 μM, Jurkat cells, read-out: luminescence level inhibitory rate at test compound 3 μM
In short: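 Luminescence (Bright-Glo, 10 min, RT) was measured after overnight compound treatment of electroporated Jurkat cells (1350 V, 10 ms interval, 3 pulses). The reaction medium was RPMI with 10% lipid-reduced FCS, 10 mM HEPES (pH 7.5) and 5 μM lovastatin.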

RORγt [4] = biological target: T1, RORγt; assay: RORγt binding test using fluorescent-labeled synthetic ligand (TR-FRET); conditions: read-out: binding inhibitory rate of fluorescent-labeled synthetic ligand to RORγt at test compound 1 μM
[5] = tested on: IL-17 production in human blood; assay: Effect on IL-17 production in human blood; format: cell-based; conditions: 72 h; 10 μM test compound; human peripheral blood, IL-23 and Dynabeads stimulation, 3 days; read-out: percent inhibition at 10 μM (IL-17 production)
Method: Effect on IL-17 Production in Human Blood
The inhibitory effect of the test compound on IL-17 production in human blood was evaluated as follows. First, 150 μL of peripheral blood collected from healthy individuals using heparinized vacuum blood collection tubes was dispensed into each well of a 96-well plate (Corning), and 45 μL of RPMI 1640 medium (Gibco) containing 10% fetal bovine serum (FBS, Hyclone) and 30 μL of the test compound diluted with the medium were added to each well. The plate was then cultured for 30 min at 37° C. The cells were subsequently stimulated by adding 30 μL of 100 ng/mL human IL-23 (R&D) and 45 μL of Dynabeads Human (Invitrogen) to each well and culturing the plate for 3 days at 37° C. In wells without stimulation, 75 μL of RPMI 1640 medium containing 10% FBS was added instead of the IL-23 and Dynabeads solution. After culturing for 3 days, the culture supernatant was collected, and the amount of IL-17 in the supernatant was measured using an IL-17 ELISA kit (R&D).
The results (percent inhibition of IL-17 production with 10 μM of the test compound) measured by the above-mentioned method are shown in Table 8.

IL-17A gene expression = assay: Effect on IL-23-induced cytokine expression in mice; format: in vivo, mouse; conditions: 10 mg/kg oral, 30 min before and 8 hr after IL-23; ear of Balb/c mice; versus the negative control group
Method: Effect on IL-23-Induced Cytokine Expression in Mice
A mouse IL-23 solution (500 ng/10 μL, prepared by Takeda Pharmaceutical Company Limited) or PBS (10 μL, negative control group) was administered intradermally in the ear of Balb/c mice (Charles River Japan, male, 7 weeks old). Twenty-four hr after administration, the ear was resected under isoflurane anesthesia. The test compound was suspended in 0.5% methylcellulose and administered orally 30 min before and 8 hr after IL-23 administration.
RNA extraction from the ear tissue and quantitative PCR were performed as follows. Specifically, ear tissue 5 mm in diameter was punched from an area of the resected ear centering on the IL-23 injection site, and the tissue was immersed in RNAlater (QIAGEN) for at least 18 hr. The RNAlater-treated ear tissue was homogenized in 350 μL of RLT buffer (RNeasy mini kit, QIAGEN) and treated (55° C., 10 min) with Proteinase K (QIAGEN). Total RNA was then extracted according to the RNeasy mini kit protocol. The RNA thus obtained was then reverse transcribed into cDNA using the High-Capacity RNA-to-cDNA kit (Applied Biosystems), and the amount of each gene expressions was measured by real-time PCR (Viia7™, Applied Biosystems). The PCR buffer used was TaqMan Fast Advanced Master Mix (Applied Biosystems), and TaqMan Gene Expression Assays (Applied Biosystems) Mm00439618_m1 (IL-17A) and 4352341E (β-actin) were used for each gene detection. The IL-17A gene expression level was normalized to the β-actin gene expression level, and the percent inhibition of IL-17A gene expression with the test compound was then calculated.
The results (percent inhibition of IL-17A gene expression with oral administration of the test compound) measured by the above-mentioned method are shown in Table 9.

Row | inhibition at 1 µM (RORγt [1]; test compound 1 μM) | inhibition at 3 µM (RORγt [3]; Jurkat) | inhibition at 1 µM (RORγt [4]; test compound 1 μM) | Compound | percent inhibition of acanthosis score [2] | percent inhibition of ear thickness [2] | percent inhibition of IL-17A expression [2] | inhibition at 10 µM [5] | inhibition at 1 µM (RORγt [1]) | inhibition at 3 µM (RORγt [3]) | inhibition at 1 µM (RORγt [4]) | percent inhibition of IL-17A gene expression (IL-17A gene expression)
1 | 54% | 97% | 102% | COc1ccc2c(n1)CCN(C(=O)[C@H]1C[C@@H]1CC(=O)O)[C@H]2C(=O)Nc1cc(F)c2c(c1)CCC2(C)C [Example 6, ((1R,2S)-2-(((5R)-5-((7-fluoro-1,1-dimethyl-2,3-dihydro-1H-inden-5-yl)carbamoyl)-2-methoxy-7,8-dihydro-1,6-naphthyridin-6(5H)-yl)carbonyl)cyclopropyl)acetic acid] | 39% | 64% | 111% | 86.6% | – | – | – | –
2 | 82% | 99% | 101% | COCc1ccc2c(c1)CCN(C(=O)[C@H]1C[C@@H](CC(=O)O)C1)[C@H]2C(=O)Nc1cc(F)c2c(c1)CCC2(C)C [Example 19, (cis-3-(((1R)-1-((7-fluoro-1,1-dimethyl-2,3-dihydro-1H-inden-5-yl)carbamoyl)-6-(methoxymethyl)-3,4-dihydroisoquinolin-2(1H)-yl)carbonyl)cyclobutyl)acetic acid] | 29% | 40% | 94% | 94.1% | – | – | – | –
3 | – | – | – | COc1ccc2c(n1)CCN(C(=O)[C@H]1C[C@@H](CC(=O)O)C1)[C@H]2C(=O)Nc1cc(F)c([Si](C)(C)C)c(F)c1 [Example 23, (cis-3-(((5R)-5-((3,5-difluoro-4-(trimethylsilyl)phenyl)carbamoyl)-2-methoxy-7,8-dihydro-1,6-naphthyridin-6(5H)-yl)carbonyl)cyclobutyl)acetic acid] | – | – | – | 85.9% | 87% | 101% | 102% | 96%
4 | – | – | – | COc1ccc2c(n1)CCN(C(=O)[C@H]1C[C@H](CC(=O)O)C1)[C@H]2C(=O)Nc1cc(F)c([Si](C)(C)C)c(F)c1 [Example 28, (trans-3-(((5R)-5-((3,5-difluoro-4-(trimethylsilyl)phenyl)carbamoyl)-2-methoxy-7,8-dihydro-1,6-naphthyridin-6(5H)-yl)carbonyl)cyclobutyl)acetic acid] | – | – | – | 89.1% | 87% | 101% | 102% | 91%
5 | – | – | – | COc1ccc2c(c1)CCN(C(=O)[C@H]1C[C@@H]1CC(=O)O)[C@H]2C(=O)Nc1cc(F)c([Si](C)(C)C)c(F)c1 [Example 29, ((1R,2S)-2-(((1R)-1-((3,5-difluoro-4-(trimethylsilyl)phenyl)carbamoyl)-6-methoxy-3,4-dihydroisoquinolin-2(1H)-yl)carbonyl)cyclopropyl)acetic acid] | – | – | – | 74.9% | 91% | 102% | 102% | 73%
6 | – | – | – | COc1ccc2c(n1)CCN(C(=O)[C@H]1C[C@@H](C(=O)O)C1)[C@H]2C(=O)Nc1cc(F)c([Si](C)(C)C)c(F)c1 [Example 31, cis-3-(((5R)-5-((3,5-difluoro-4-(trimethylsilyl)phenyl)carbamoyl)-2-methoxy-7,8-dihydro-1,6-naphthyridin-6(5H)-yl)carbonyl)cyclobutanecarboxylic acid] | – | – | – | 89.8% | 86% | 102% | 102% | 85%
7 | – | – | – | COc1ccc2c(c1)CCN(C(=O)[C@H]1C[C@@H](CC(=O)O)C1)[C@H]2C(=O)Nc1ccc([Si](C)(C)C)c(F)c1 [Example 33, (cis-3-(((1R)-1-((3-fluoro-4-(trimethylsilyl)phenyl)carbamoyl)-6-methoxy-3,4-dihydroisoquinolin-2(1H)-yl)carbonyl)cyclobutyl)acetic acid] | – | – | – | 78.5% | 92% | 102% | 102% | 94%
